Measured values taken from the kinase profiling compilation of Christmann-Franck et al. (2016).

Experiments:
Assay in all cases: radiometric filter-binding kinase assay, Kinase HotSpot
Conditions in all cases: compound 0.5 µM; ATP 10 µM
AURKC (human) = AURKC (human) (UniProt Q9UQB9)
RPS6KA2 KD1 KD2 (human) = RPS6KA2 KD1 KD2 (human) (UniProt Q15349)
CSNK1D (human) = CSNK1D (human) (UniProt P48730)
VRK1 (human) = VRK1 (human) (UniProt Q99986)
PRKD2 (human) = PRKD2 (human) (UniProt Q9BZL6)
CDK3 CCNE1 (human) = CDK3 CCNE1 (human) (UniProt Q00526+P24864)
PTK2 (human) = PTK2 (human) (UniProt Q05397)
RIPK2 (human) = RIPK2 (human) (UniProt O43353)
MAP3K2 (human) = MAP3K2 (human) (UniProt Q9Y2U5)
PRKG2 (human) = PRKG2 (human) (UniProt Q13237)
SYK (human) = SYK (human) (UniProt P43405)
DAPK2 (human) = DAPK2 (human) (UniProt Q9UIK4)
MAP3K5 (human) = MAP3K5 (human) (UniProt Q99683)
CAMK1D (human) = CAMK1D (human) (UniProt Q8IU85)
Chain of CAMK1D (human) (Q8IU85 whole entry, looked up): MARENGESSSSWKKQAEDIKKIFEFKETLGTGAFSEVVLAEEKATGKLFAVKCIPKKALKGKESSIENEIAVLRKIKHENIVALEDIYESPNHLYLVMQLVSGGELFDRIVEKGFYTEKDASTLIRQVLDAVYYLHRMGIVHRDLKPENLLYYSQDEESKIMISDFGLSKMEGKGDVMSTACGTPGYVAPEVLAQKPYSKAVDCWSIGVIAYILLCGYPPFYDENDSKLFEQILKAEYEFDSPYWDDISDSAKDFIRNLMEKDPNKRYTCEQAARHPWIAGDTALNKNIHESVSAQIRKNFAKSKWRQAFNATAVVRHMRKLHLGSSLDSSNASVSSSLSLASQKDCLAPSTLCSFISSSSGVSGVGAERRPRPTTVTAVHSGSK

AXL (human) = AXL (human) (UniProt P30530)
DAPK1 (human) = DAPK1 (human) (UniProt P53355)
Chain of DAPK1 (human) (P53355 whole entry, looked up): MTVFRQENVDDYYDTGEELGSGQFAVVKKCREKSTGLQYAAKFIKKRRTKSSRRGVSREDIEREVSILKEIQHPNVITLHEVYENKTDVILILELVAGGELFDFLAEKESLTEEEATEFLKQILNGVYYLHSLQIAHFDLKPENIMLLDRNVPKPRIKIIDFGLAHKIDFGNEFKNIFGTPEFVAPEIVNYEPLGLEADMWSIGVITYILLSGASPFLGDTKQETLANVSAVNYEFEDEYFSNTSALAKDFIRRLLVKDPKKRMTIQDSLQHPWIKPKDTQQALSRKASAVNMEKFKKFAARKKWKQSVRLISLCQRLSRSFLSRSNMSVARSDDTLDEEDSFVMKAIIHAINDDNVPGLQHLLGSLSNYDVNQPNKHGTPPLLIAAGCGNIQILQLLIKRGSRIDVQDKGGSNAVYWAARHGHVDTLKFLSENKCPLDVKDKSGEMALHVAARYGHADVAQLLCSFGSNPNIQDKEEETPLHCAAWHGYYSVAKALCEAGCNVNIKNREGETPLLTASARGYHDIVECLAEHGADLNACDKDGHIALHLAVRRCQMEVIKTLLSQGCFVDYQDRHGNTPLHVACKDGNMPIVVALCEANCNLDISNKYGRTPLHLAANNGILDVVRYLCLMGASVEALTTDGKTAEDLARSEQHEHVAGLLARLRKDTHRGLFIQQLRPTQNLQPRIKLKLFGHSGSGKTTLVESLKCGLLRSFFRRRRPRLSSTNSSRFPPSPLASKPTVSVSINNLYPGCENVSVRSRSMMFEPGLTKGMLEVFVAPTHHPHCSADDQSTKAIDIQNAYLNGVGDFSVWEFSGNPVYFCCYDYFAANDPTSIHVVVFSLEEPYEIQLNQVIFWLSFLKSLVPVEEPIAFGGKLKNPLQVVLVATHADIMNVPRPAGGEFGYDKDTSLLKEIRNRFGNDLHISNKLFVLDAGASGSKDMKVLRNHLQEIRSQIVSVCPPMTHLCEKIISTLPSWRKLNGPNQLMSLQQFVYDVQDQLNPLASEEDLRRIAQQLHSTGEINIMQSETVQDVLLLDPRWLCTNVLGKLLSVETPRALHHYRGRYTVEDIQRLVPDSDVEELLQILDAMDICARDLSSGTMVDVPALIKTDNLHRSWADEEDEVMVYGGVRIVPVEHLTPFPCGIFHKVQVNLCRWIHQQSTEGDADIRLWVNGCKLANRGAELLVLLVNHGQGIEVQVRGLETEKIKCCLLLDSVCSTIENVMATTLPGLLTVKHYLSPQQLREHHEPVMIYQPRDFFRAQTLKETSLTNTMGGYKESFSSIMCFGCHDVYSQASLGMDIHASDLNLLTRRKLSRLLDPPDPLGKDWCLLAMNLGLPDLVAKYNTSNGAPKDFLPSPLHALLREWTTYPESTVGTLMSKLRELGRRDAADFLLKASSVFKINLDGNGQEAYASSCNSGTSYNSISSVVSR

STK24 (human) = STK24 (human) (UniProt Q9Y6E0)
PHKG1 (human) = PHKG1 (human) (UniProt Q16816)
Chain of PHKG1 (human) (Q16816 whole entry, looked up): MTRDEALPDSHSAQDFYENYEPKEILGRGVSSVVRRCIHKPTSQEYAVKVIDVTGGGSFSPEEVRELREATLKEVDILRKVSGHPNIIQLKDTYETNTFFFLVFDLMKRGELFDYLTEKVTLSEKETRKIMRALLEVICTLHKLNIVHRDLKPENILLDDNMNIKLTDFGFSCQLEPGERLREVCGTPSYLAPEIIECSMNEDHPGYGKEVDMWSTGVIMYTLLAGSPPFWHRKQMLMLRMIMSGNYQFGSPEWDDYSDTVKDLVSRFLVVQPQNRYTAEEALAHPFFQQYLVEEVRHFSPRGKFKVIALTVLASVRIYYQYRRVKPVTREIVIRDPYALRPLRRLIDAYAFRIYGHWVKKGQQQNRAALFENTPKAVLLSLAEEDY

CAMK2D (human) = CAMK2D (human) (UniProt Q13557)
RPS6KB1 (human) = RPS6KB1 (human) (UniProt P23443)
MAP3K7 TAB1 (human) = MAP3K7 TAB1 (human) (UniProt O43318+Q15750)
PDGFRB (human) = PDGFRB (human) (UniProt P09619)
PRKCD (human) = PRKCD (human) (UniProt Q05655)
LIMK1 (human) = LIMK1 (human) (UniProt P53667)
CDK7 CCNH MNAT1 (human) = CDK7 CCNH MNAT1 (human) (UniProt P50613+P51948+P51946)
AKT3 (human) = AKT3 (human) (UniProt Q9Y243)
MAPK12 (human) = MAPK12 (human) (UniProt P53778)
BTK (human) = BTK (human) (UniProt Q06187)
SRPK2 (human) = SRPK2 (human) (UniProt P78362)
INSRR (human) = INSRR (human) (UniProt P14616)
Chain of INSRR (human) (P14616 whole entry, looked up): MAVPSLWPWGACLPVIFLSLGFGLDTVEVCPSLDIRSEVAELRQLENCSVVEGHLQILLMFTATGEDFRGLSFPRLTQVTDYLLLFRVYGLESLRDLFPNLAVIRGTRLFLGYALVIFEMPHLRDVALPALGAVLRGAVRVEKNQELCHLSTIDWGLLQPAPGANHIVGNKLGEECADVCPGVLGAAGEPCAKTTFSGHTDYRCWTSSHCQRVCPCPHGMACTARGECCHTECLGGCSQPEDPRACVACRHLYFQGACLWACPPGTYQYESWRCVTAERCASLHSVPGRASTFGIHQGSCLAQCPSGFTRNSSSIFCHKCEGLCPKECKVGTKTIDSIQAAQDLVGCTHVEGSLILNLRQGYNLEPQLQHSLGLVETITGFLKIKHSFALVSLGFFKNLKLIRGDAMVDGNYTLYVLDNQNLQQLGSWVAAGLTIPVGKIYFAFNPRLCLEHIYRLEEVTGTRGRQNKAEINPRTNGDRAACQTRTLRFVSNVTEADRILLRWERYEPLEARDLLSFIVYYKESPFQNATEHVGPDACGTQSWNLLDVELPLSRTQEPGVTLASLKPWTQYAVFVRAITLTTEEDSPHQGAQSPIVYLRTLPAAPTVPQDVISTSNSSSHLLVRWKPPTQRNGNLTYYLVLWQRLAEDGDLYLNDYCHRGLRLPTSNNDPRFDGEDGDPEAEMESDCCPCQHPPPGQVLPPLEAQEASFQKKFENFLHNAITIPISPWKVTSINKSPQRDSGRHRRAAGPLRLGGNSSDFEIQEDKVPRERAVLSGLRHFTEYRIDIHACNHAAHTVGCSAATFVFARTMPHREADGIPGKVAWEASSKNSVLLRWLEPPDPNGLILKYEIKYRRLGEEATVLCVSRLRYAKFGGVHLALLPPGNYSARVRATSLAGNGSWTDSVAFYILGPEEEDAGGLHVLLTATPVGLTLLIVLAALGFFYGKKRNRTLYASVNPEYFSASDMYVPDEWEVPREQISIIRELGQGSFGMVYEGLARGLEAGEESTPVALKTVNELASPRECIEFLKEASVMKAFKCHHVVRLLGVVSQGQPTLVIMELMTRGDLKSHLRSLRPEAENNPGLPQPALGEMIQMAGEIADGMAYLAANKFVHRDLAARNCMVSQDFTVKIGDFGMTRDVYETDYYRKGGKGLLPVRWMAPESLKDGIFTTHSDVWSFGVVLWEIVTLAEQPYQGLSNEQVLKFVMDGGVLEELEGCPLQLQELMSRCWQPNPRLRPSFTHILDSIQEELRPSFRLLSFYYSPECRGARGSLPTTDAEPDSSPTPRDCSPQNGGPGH

PASK (human) = PASK (human) (UniProt Q96RG2)
FES (human) = FES (human) (UniProt P07332)
NEK3 (human) = NEK3 (human) (UniProt P51956)
CAMK2A (human) = CAMK2A (human) (UniProt Q9UQM7)
EPHA4 (human) = EPHA4 (human) (UniProt P54764)
TAOK1 (human) = TAOK1 (human) (UniProt Q7L7X3)
STK16 (human) = STK16 (human) (UniProt O75716)
Chain of STK16 (human) (O75716 whole entry, looked up): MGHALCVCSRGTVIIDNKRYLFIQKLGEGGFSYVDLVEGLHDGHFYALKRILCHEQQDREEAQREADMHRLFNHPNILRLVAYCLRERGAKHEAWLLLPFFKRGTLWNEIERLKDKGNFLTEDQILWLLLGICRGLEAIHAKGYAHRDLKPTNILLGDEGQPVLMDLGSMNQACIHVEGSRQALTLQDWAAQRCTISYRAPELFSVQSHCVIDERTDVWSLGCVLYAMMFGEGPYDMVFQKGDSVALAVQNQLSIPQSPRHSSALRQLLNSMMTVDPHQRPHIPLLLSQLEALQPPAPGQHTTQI

DYRK3 (human) = DYRK3 (human) (UniProt O43781)
ACVR1B (human) = ACVR1B (human) (UniProt P36896)
MAP3K9 (human) = MAP3K9 (human) (UniProt P80192)
MAP4K4 (human) = MAP4K4 (human) (UniProt O95819)
TGFBR2 (human) = TGFBR2 (human) (UniProt P37173)

Chain of PRKD2 (human) (Q9BZL6 whole entry, looked up): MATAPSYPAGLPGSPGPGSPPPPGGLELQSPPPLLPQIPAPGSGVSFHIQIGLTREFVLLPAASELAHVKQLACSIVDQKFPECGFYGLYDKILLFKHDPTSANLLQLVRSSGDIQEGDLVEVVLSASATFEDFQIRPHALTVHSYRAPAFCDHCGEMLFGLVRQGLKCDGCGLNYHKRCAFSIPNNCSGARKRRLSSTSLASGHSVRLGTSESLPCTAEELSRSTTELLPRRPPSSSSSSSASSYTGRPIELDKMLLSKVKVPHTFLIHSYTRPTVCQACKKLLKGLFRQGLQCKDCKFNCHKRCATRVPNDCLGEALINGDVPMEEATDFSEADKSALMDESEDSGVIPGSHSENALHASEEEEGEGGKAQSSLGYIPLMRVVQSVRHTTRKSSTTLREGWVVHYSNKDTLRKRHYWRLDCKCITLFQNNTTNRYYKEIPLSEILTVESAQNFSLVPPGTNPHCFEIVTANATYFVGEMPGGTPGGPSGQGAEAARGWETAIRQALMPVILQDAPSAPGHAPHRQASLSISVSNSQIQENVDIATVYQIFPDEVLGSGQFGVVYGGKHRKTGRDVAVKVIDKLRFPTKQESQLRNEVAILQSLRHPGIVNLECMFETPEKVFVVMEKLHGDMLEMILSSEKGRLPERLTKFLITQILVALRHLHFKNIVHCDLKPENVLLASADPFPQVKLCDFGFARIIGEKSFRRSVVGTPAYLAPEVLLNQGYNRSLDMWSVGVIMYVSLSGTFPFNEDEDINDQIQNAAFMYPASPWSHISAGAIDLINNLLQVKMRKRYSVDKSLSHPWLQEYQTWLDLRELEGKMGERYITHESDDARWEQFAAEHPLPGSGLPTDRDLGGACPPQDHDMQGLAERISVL
Chain of AURKC (human) (Q9UQB9 whole entry, looked up): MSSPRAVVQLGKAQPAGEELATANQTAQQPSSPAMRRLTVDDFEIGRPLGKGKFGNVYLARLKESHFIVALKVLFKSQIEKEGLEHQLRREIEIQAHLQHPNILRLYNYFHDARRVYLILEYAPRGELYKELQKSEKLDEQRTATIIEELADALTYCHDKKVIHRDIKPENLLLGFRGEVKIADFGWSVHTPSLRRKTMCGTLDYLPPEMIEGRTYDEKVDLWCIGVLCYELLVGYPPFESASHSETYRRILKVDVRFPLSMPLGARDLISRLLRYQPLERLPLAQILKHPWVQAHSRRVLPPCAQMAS

Structure (SMILES): COc1cc2ncc(-c3ccccc3)nc2cc1OC
- residual activity (AURKC (human)): 90.1%
- residual activity (RPS6KA2 KD1 KD2 (human)): 85.4%
- residual activity (CSNK1D (human)): 101%
- residual activity (VRK1 (human)): 106%
- residual activity (PRKD2 (human)): 93.8%
- residual activity (CDK3 CCNE1 (human)): 83.8%
- residual activity (PTK2 (human)): 100%
- residual activity (RIPK2 (human)): 90.3%
- residual activity (MAP3K2 (human)): 92.5%
- residual activity (PRKG2 (human)): 83.6%
- residual activity (SYK (human)): 92.5%
- residual activity (DAPK2 (human)): 97.3%
- residual activity (MAP3K5 (human)): 108%
- residual activity (CAMK1D (human)): 96.6%
- residual activity (AXL (human)): 95.2%
- residual activity (DAPK1 (human)): 99.7%
- residual activity (STK24 (human)): 104%
- residual activity (PHKG1 (human)): 92.4%
- residual activity (CAMK2D (human)): 87.5%
- residual activity (RPS6KB1 (human)): 89%
- residual activity (MAP3K7 TAB1 (human)): 92.8%
- residual activity (PDGFRB (human)): 87.5%
- residual activity (PRKCD (human)): 82.2%
- residual activity (LIMK1 (human)): 77.7%
- residual activity (CDK7 CCNH MNAT1 (human)): 109%
- residual activity (AKT3 (human)): 94.5%
- residual activity (MAPK12 (human)): 95.5%
- residual activity (BTK (human)): 98%
- residual activity (SRPK2 (human)): 84.4%
- residual activity (INSRR (human)): 99.2%
- residual activity (PASK (human)): 98.9%
- residual activity (FES (human)): 105%
- residual activity (NEK3 (human)): 90.5%
- residual activity (CAMK2A (human)): 99.5%
- residual activity (EPHA4 (human)): 99.3%
- residual activity (TAOK1 (human)): 104%
- residual activity (STK16 (human)): 93.5%
- residual activity (DYRK3 (human)): 95.4%
- residual activity (ACVR1B (human)): 95.2%
- residual activity (MAP3K9 (human)): 85.4%
- residual activity (MAP4K4 (human)): 62.1%
- residual activity (TGFBR2 (human)): 75%

Structure (SMILES): CN(C)C[C@H]1CCn2c(c(C3=C(c4cn(C)c5ccccc45)C(=O)NC3=O)c3ccccc32)C1
- residual activity (AURKC (human)): 93.1%
- residual activity (RPS6KA2 KD1 KD2 (human)): 3.57%
- residual activity (CSNK1D (human)): 101%
- residual activity (VRK1 (human)): 105%
- residual activity (PRKD2 (human)): 97.6%
- residual activity (CDK3 CCNE1 (human)): 62.4%
- residual activity (PTK2 (human)): 95.9%
- residual activity (RIPK2 (human)): 94.4%
- residual activity (MAP3K2 (human)): 94.6%
- residual activity (PRKG2 (human)): 90.7%
- residual activity (SYK (human)): 99.6%
- residual activity (DAPK2 (human)): 90.4%
- residual activity (MAP3K5 (human)): 107%
- residual activity (CAMK1D (human)): 101%
- residual activity (AXL (human)): 99.3%
- residual activity (DAPK1 (human)): 94.1%
- residual activity (STK24 (human)): 66.5%
- residual activity (PHKG1 (human)): 78.4%
- residual activity (CAMK2D (human)): 82.4%
- residual activity (RPS6KB1 (human)): 20%
- residual activity (MAP3K7 TAB1 (human)): 95.3%
- residual activity (PDGFRB (human)): 102%
- residual activity (PRKCD (human)): 8.11%
- residual activity (LIMK1 (human)): 89.4%
- residual activity (CDK7 CCNH MNAT1 (human)): 83%
- residual activity (AKT3 (human)): 56.3%
- residual activity (MAPK12 (human)): 102%
- residual activity (BTK (human)): 103%
- residual activity (SRPK2 (human)): 91.5%
- residual activity (INSRR (human)): 98.7%
- residual activity (PASK (human)): 93%
- residual activity (FES (human)): 102%
- residual activity (NEK3 (human)): 99.4%
- residual activity (CAMK2A (human)): 100%
- residual activity (EPHA4 (human)): 103%
- residual activity (TAOK1 (human)): 93%
- residual activity (STK16 (human)): 109%
- residual activity (DYRK3 (human)): 102%
- residual activity (ACVR1B (human)): 98.2%
- residual activity (MAP3K9 (human)): 90.8%
- residual activity (MAP4K4 (human)): 82.5%
- residual activity (TGFBR2 (human)): 98.5%

Structure (SMILES): CN([C@@H](Cc1ccc(OS(=O)(=O)c2cccc3cnccc23)cc1)C(=O)N1CCN(c2ccccc2)CC1)S(=O)(=O)c1cccc2cnccc12
- residual activity (AURKC (human)): 98.2%
- residual activity (RPS6KA2 KD1 KD2 (human)): 102%
- residual activity (CSNK1D (human)): 109%
- residual activity (VRK1 (human)): 92.1%
- residual activity (PRKD2 (human)): 100%
- residual activity (CDK3 CCNE1 (human)): 101%
- residual activity (PTK2 (human)): 104%
- residual activity (RIPK2 (human)): 89.4%
- residual activity (MAP3K2 (human)): 98.9%
- residual activity (PRKG2 (human)): 99.5%
- residual activity (SYK (human)): 98.7%
- residual activity (DAPK2 (human)): 99.7%
- residual activity (MAP3K5 (human)): 99.2%
- residual activity (CAMK1D (human)): 101%
- residual activity (AXL (human)): 103%
- residual activity (DAPK1 (human)): 117%
- residual activity (STK24 (human)): 102%
- residual activity (PHKG1 (human)): 93.4%
- residual activity (CAMK2D (human)): 92.8%
- residual activity (RPS6KB1 (human)): 101%
- residual activity (MAP3K7 TAB1 (human)): 93.4%
- residual activity (PDGFRB (human)): 104%
- residual activity (PRKCD (human)): 93%
- residual activity (LIMK1 (human)): 104%
- residual activity (CDK7 CCNH MNAT1 (human)): 99.4%
- residual activity (AKT3 (human)): 104%
- residual activity (MAPK12 (human)): 92.2%
- residual activity (BTK (human)): 97.1%
- residual activity (SRPK2 (human)): 99.4%
- residual activity (INSRR (human)): 94.9%
- residual activity (PASK (human)): 103%
- residual activity (FES (human)): 97.7%
- residual activity (NEK3 (human)): 99.8%
- residual activity (CAMK2A (human)): 107%
- residual activity (EPHA4 (human)): 95.4%
- residual activity (TAOK1 (human)): 98.7%
- residual activity (STK16 (human)): 104%
- residual activity (DYRK3 (human)): 112%
- residual activity (ACVR1B (human)): 98.7%
- residual activity (MAP3K9 (human)): 104%
- residual activity (MAP4K4 (human)): 94.8%
- residual activity (TGFBR2 (human)): 101%
